Measured values reported in patent publication US7056940B2, “Insecticidal 3-(2,6-disubstituted phenyl)-5-[5-arylthien-2-yl]-1,2,4-triazoles” (Dow AgroSciences LLC, priority 2001, dated 2006).

Legend:
Format in all cases: in vivo
[1] = test system: Tobacco Budworm (Heliothis virescens); assay: Insecticidal test for tobacco budworm, treated cotton cotyledon leaf disc; design: key: A: 90–100; B: 80–89; C: 70–79; D: 60–69; E: 50–59; F: less than 50; G: Inactive; conditions: cotton cotyledon leaf-dip, 2nd instar larvae, 5 days
Description: (§1) The compounds are useful for reducing populations of insects and mites and are useful in a method of inhibiting an insect or mite population which comprises applying to a locus of the insect or mite an effective insect- or mite-inactivating amount of a compound of formula (1). The “locus” of insects or mites is a term used herein to refer to the environment in which the insects or mites live or where their eggs are present, including the air surrounding them, the food they eat, or objects which they contact. For example, insects or mites which eat or contact edible or ornamental plants can be controlled by applying the active compound to plant parts such as the seed, seedling, or cutting which is planted, the leaves, stems, fruits, grain, or roots, or to the soil in which the roots are growing. It is contemplated that the compounds might also be useful to protect textiles, paper, stored grain, seeds, domesticated animals, buildings or human beings by applying an active compound to or near such objects. The term “inhibiting an insect or mite” refers to a decrease in the numbers of living insects or mites, or a decrease in the number of viable insect or mite eggs. The extent of reduction accomplished by a compound depends, of course, upon the application rate of the compound, the particular compound used, and the target insect or mite species. At least an inactivating amount should be used. The terms “insect-inactivating amount” and “mite-inactivating amount” are used to describe the amount, which is sufficient to cause a measurable reduction in the treated insect or mite population. Generally an amount in the range from about 1 to about 1000 ppm by weight active compound is used. For example, insects and mites which can be inhibited include, but are not limited to: • Lepidoptera—Heliothis spp., Helicoverpa spp., Spodoptera spp., Mythimna unipuncta, Agrotis ipsilon, Earias spp., Euxoa auxiliaris, Trichoplusia ni, Anticarsia gemmatalis, Rachiplusia nu, Plutella xylostella, Chilo spp., Scirpophaga incertulas, Sesamia inferens, Cnaphalocrocis medinalis, Ostrinia nubilalis, Cydia pomonella, Carposina niponensis, Adoxophyes orana, Archips argyrospilus, Pandemis heparana, Epinotia aporema, Eupoecilia ambiguella, Lobesia botrana, Polychrosis viteana, Pectinophora gossypiella, Pieris rapae, Phyllonorycter spp., Leucoptera malifoliella, Phyllocnisitis citrella • Coleoptera—Diabrotica spp., Leptinotarsa decemlineata, Oulema oryzae, Anthonomus grandis, Lissorhoptrus oryzophilus, Agriotes spp., Melanotus communis, Popillia japonica, Cyclocephala spp., Tribolium spp. • Homoptera—Aphis spp., Myzus persicae, Rhopalosiphum spp., Dysaphis plantaginea, Toxoptera spp., Macrosiphum euphorbiae, Aulacorthum solani, Sitobion avenae, Metopolophium dirhodum, Schizaphis graminum, Brachycolus noxius, Nephotettix spp., Nilaparvata lugens, Sogatella furcifera, Laodelphax striatellus, Bemisia tabaci, Trialeurodes vaporariorum, Aleurodes proletella, Aleurothrixus floccosus, Quadraspidiotus perniciosus, Unaspis yanonensis, Ceroplastes rubens, Aonidiella aurantii • Hemiptera—Lygus spp., Eurygaster maura, Nezara viridula, Piezodorus guildingi, Leptocorisa varicornis • Thysanoptera—Frankliniella occidentalis, Thrips spp., Scirtothrips dorsalis • Isoptera—Reticulitermes flavipes, Coptotermes formosanus • Orthoptera—Blattella germanica, Blatta orientalis, Gryllotalpa spp. • Diptera—Liriomyza spp., Musca domestica, Aedes spp., Culex spp., Anopheles spp. • Hymenoptera—Iridomyrmex humilis, Solenopsis spp., Monomorium pharaonis, Atta spp., Pogonomyrmex spp., Camponotus spp. • Siphonaptera—Ctenophalides spp., Pulex irritans • Acarina—Tetranychus spp., Panonychus spp., Eotetranychus carpini, Phyllocoptruta oleivora, Aculus pelekassi, Brevipalpus phoenicis, Boophilus spp., Dermacentor variabilis, Rhipicephalus sanguineus, Amblyomma americanum, Ixodes spp., Notoedres cati, Sarcoptes scabiei, Dermatophagoides spp. […]

[2] = test system: Sweetpotato Whitefly (Bemisia tabacia); assay: Insecticidal test for sweetpotato whitefly, spray on cotton plants; design: key: A: 90–100; B: 80–89; C: 70–79; D: 60–69; E: 50–59; F: less than 50; G: Inactive; conditions: 200 ppm spray, 13 days, large nymphs
Description: Insecticidal Test for Sweetpotato Whitefly (Bemisia tabacia)
Four mg of each test compound was dissolved by adding 4 mL of a 90:10 acetone:ethanol solvent mixture to the vial containing the sample compound. This solution was added to 16 mL of water containing 0.05% Tween 20 surfactant to produce 20 mL of an 200 ppm spray solution.
Five-week-old cotton plants reared in a greenhouse were stripped of all foliage except for the two uppermost true leaves that were greater than 5 cm in diameter. These plants were then placed into a laboratory colony of whiteflies for two days for oviposition by the colony females. All whiteflies were then removed from the test plants with pressurized air. The spray solution was then applied to the test plants with a hand-held syringe fitted with hollow cone nozzle. One mL spray solution was applied to each leaf top and bottom for a total of 4 mL per plant. Four replications of each test compound utilized a total of 16 mL spray solution. Plants were air dried and then placed in a holding chamber (28° C. and 60% RH) for 13 days. Compound efficacy was evaluated by counting, under an illuminated magnifying glass, the number of large nymphs (3rd–4th instar) per leaf.
Percent control based on reduction of large nymphs of a test compound compared to solution-only (no test compound) sprayed plants is reported in Tables 1–4.

[3] = test system: Cotton Aphid (Aphis gossypii); assay: Insecticidal test for cotton aphid, spray on infested squash cotyledons; conditions: 50 ppm spray, 3 days
Description: Insecticidal Test for Cotton Aphid (Aphis gossypii)
To prepare spray solutions, 1 mg of each test compound was dissolved into 1 mL of a 90:10 acetone:ethanol solvent. This 1 mL of chemical solution was added to 19 mL of water containing 0.05% Tween 20 surfactant to produce a 50 ppm spray solution.
Squash cotyledons were infested with cotton aphid (all life stages) 16–20 hours prior to application of spray solution. The solution was sprayed on both sides of each infested squash cotyledon (0.5 mL×2 each side) with a sweeping action until runoff. The plants were allowed to air dry and held for 3 days in a controlled room at 26° C. and 40% RH after which time the test was graded. Grading was by actual count using a dissecting microscope and comparison of test counts to the untreated check. Results are given in Tables 1–4 as percent control based on population reduction versus the untreated.

[4] = test system: Cabbage Looper (Trichoplusia ni); assay: Insecticidal test for cabbage looper, treated cabbage leaf disc; design: key: A: 90–100; B: 80–89; C: 70–79; D: 60–69; E: 50–59; F: less than 50; G: Inactive; conditions: cabbage leaf-dip, 2nd instar larvae, 5 days
Description: as §1

[5] = test system: Two-spotted Spider Mite (Tetranychus urticae); assay: Insecticidal test for two-spotted spider mite, ovicide method; design: key: A: 90–100; B: 80–89; C: 70–79; D: 60–69; E: 50–59; F: less than 50; G: Inactive; conditions: cotton leaf discs, 6 days
Description: Insecticidal Test for Two-spotted Spider Mite (Tetranychus urticae)
Ten adult female two-spotted spider mites were placed on eight 2.2 cm leaf discs of cotton leaf, allowed to oviposit over 24 hours, and thereafter removed. […] Discs were placed on an agar substrate and held at 24° C. and 90% RH for 6 days.

[6] = test system: Beet Armyworm (Spodoptera exigua); assay: Insecticidal test for beet armyworm, treated lepidopteran diet; design: key: A: 90–100; B: 80–89; C: 70–79; D: 60–69; E: 50–59; F: less than 50; G: Inactive; conditions: on diet surface, second-instar larvae, 5 days
Description: as §1

| Structure (SMILES) | TBW: activity at 400 ppm against tobacco budworm (% control rating) [1] | WF: activity at 200 ppm against whitefly (% control rating) [2] | CA: activity at 50 ppm against cotton aphid (% control rating) [3] | CL: activity at 400 ppm against cabbage looper (% control rating) [4] | SM: activity against two-spotted spider mite (% control rating) [5] | BAW: activity at 400 ppm against beet armyworm (% control rating) [6] |
| --- | --- | --- | --- | --- | --- | --- |
| CSc1ccc(-c2scc(-c3nc(-c4c(F)cccc4Cl)nn3C)c2C)cc1 | G | G | B (80–89) | G | E (50–59) | D (60–69) |
| Cc1c(-c2nc(-c3c(F)cccc3Cl)nn2C)csc1-c1cccc(OC(F)(F)F)c1 | G | B (80–89) | A (90–100) | A (90–100) | F (less than 50) | G |
| Cc1c(-c2nc(-c3c(F)cccc3Cl)nn2C)csc1-c1ccc(Oc2ccccc2)cc1 | F (less than 50) | A (90–100) | A (90–100) | A (90–100) | A (90–100) | A (90–100) |
| CCCOc1ccc(-c2scc(-c3nc(-c4c(F)cccc4Cl)nn3C)c2C)cc1 | G | A (90–100) | A (90–100) | A (90–100) | G | A (90–100) |
| Cc1c(-c2nc(-c3c(F)cccc3Cl)nn2C)csc1-c1ccc(OCC(F)(F)F)cc1 | A (90–100) | A (90–100) | B (80–89) | A (90–100) | A (90–100) | A (90–100) |
| Cc1c(-c2nc(-c3c(F)cccc3Cl)nn2C)csc1-c1cc(C(F)(F)F)ccc1F | G | F (less than 50) | B (80–89) | A (90–100) | F (less than 50) | G |
| Cc1sc(-c2cc(C(F)(F)F)ccc2F)cc1-c1nc(-c2c(F)cccc2Cl)nn1C | F (less than 50) | G | D (60–69) | G | G | G |
| Cc1c(-c2nc(-c3c(F)cccc3Cl)nn2C)csc1-c1ccc(OC(F)(F)C(F)Br)cc1 (stereo not drawn) | A (90–100) | A (90–100) | A (90–100) | A (90–100) | A (90–100) | A (90–100) |
| Cc1c(-c2nc(-c3c(F)cccc3F)nn2C)csc1-c1ccc(C(F)(F)F)cc1Cl | G | G | E (50–59) | A (90–100) | G | G |
| Cc1c(-c2nc(-c3c(F)cccc3Cl)nn2C)csc1-c1ccc(OC(F)(F)F)cc1F | A (90–100) | A (90–100) | B (80–89) | A (90–100) | F (less than 50) | A (90–100) |
| Cc1c(-c2nc(-c3c(F)cccc3Cl)nn2C)csc1-c1ccc(OC2CCCCO2)cc1 (stereo not drawn) | F (less than 50) | F (less than 50) | B (80–89) | F (less than 50) | F (less than 50) | A (90–100) |
| Cc1c(-c2nc(-c3c(F)cccc3Cl)nn2C)csc1-c1ccc(OC(F)(F)C(F)F)cc1 | A (90–100) | A (90–100) | C (70–79) | A (90–100) | E (50–59) | A (90–100) |
| Cc1sc(-c2ccc(OC(F)(F)C(F)C(F)(F)F)cc2)c(C)c1-c1nc(-c2c(F)cccc2Cl)nn1C (stereo not drawn) | A (90–100) | G | E (50–59) | A (90–100) | G | A (90–100) |
